pIC50, pKi: −log10 of the molar value.
Legend:
U2OS cells = assay: Cell viability (ATP) of unmodified U2OS cells, parallel to reporter assay; type: cell-based, human
Method: To separate the antagonist activity of test compounds from the cytotoxic effect on U2OS cells (cell line derived from osteosarcoma), an experiment for determination of cell viability was performed in parallel with the reporter assay. Original, genetically unmodified U2OS cells were grown under the same conditions as the reporter cells. These cells were further treated and incubated with the compounds in a completely identical manner and for the same time as cells in the reporter assay. At the end of the experiment, the amount of ATP was determined using BriteLite luciferase homogeneous assay as a measure of cell viability. The data were then processed together with data from the reporter assays.

luciferase = luciferase (Photinus pyralis, UniProt P08659); assay: Luciferase activity in U2OS cell line constitutively expressing luciferase gene; type: cell-based; conditions: read-out: Luciferase activity IC50
Method: In order to distinguish between the specific, steroid hormone response elements-driven regulation of the luciferase expression and the possible effects of test compounds on the luciferase activity, compounds were tested in parallel experiment on a U2OS cell line constitutively expressing luciferase gene.
Luciferase activity was determined by a commercial kit Britelite plus a luciferase reporter gene assay reagent (Perkin Elmer, USA), 24 h after addition of compounds to cells. The intensity of luminescence was measured on an Envision multimode spectrophotometer (PerkinElmer).

17βHSD5 = biological target: T1, 17βHSD5 (Homo sapiens, UniProt P42330); conditions: cited from earlier work
T1 sequence (P42330 1-323): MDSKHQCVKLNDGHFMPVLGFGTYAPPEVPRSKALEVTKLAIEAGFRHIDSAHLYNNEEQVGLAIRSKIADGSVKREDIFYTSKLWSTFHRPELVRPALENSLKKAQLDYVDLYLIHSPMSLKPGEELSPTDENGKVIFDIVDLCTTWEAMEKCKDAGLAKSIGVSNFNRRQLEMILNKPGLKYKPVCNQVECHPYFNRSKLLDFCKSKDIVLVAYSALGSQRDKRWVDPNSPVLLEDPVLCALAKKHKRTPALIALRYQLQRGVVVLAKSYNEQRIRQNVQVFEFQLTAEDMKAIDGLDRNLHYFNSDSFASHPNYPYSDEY

MRCS = assay: MTT cytotoxicity assay, MRC5 fibroblasts; type: cell-based; conditions: Homo sapiens, Fibroblast, non-tumor fibroblasts
From the text: (§1) Compounds 5, 6, 7, 9, 14 and 15 were used for evaluation of antitumor activity. MTT cytotoxicity assay was used in vitro on cell lines derived from normal tissues and from tumors. Specifically, these were the K562 line (human myeloid leukemia), K562-Tax (human myeloid leukemia resistant to taxol and overexpressing PgP protein for multidrug resistance), CEM (T-lymphoblastic leukemia), CEM-DNR bulk (T-lymphoblastic leukemia resistant doxorubicin, lacking the expression of the target gene for inhibitors of topoisomerase II alpha), A549 line (human lung adenocarcinoma), HCT116p53 wt (human colon cancer), HCT116p53−/− (human colon cancer, mutant p53), U2OS line of human osteosarcoma and two fibroblast lines MRC5 and BJ as examples of non-tumor cells. Expression characteristics, profiles of susceptibility to classical antitumor drugs and methodology of the MTT cytotoxicity assay were repeatedly published (e.g. Noskova et al. Neoplasma 2002, 49, 418; S̆arek et. al. J. Med. Chem. 2003, 46, 25, 5402).

human 17βHSD type 5 = biological target: T2, human 17βHSD type 5 (Homo sapiens, UniProt P42330); assay: Inhibition of recombinant 17βHSD type 5, tritium-labeled substrate conversion; type: biochemical; conditions: 1 μmol · l^−1 test substance
T2 construct: made in house; host or cells: bacteria (Escherichia coli); supernatant of the lysate
T2 sequence (P42330 1-323): T1 sequence (P42330 1-323)
Method: (§2) The inhibitory activity of the test substances was determined for individual isoenzymes from the 17βHSD family, specifically these were the types 1, 2, 3, 4, 5 and 7. Escherichia coli and mammalian cells expression systems were used for recombinant expression of individual isozymes of human 17βHSD. Only in the case of 17HSD5 the enzyme was partially purified and supernatant obtained by centrifugation of the bacterial lysate was used for testing. Systems expressing specific 17βHSD type were suspended in a reaction buffer and incubated with tritium-labeled substrates and respective cofactors at 37° C. in two parallel tests: the control arrangement (DMSO without the inhibitor) and the test arrangement (DMSO with the inhibitor). DMSO serves as a negative control in this case. After 20-30% of the substrate was converted by the activity of the enzyme to the product in a control test, both tests were terminated. Substrate and product from the test arrangement were isolated by SPE (solid phase extraction), and then separated by reverse phase HPLC. Substrate conversion was determined by integration of the signals of the substrate and product, and was expressed in %. For the purposes of the subsequent calculation of enzyme inhibition, the conversion of the control test was designated as 0% inhibition. All tests were performed in triplicates. IC50 values were subsequently determined by a standard method using the “One Ligand Binding” model of SigmaPlot kinetics module (Schustera et. al. J. Ster. Biochem. Mol. Biol. 2011, 125, 148; Möller et. al. Biioorg. Med. Chem. Lett. 2009, 19, 6740; Möller et. al. PLoS One, 2010, 5, 6, e10969).

human 17βHSD1 [1] = biological target: T3, human 17βHSD1 (Homo sapiens, UniProt P14061); assay: 17βHSD inhibition in MCF-7 cells transfected with human 17βHSD1, E1 in supernatant; type: cell-based; parameters: expressed in transfected cells; host or cells: MCF-7; conditions: 10 μmol·l^−1
T3 sequence (P14061 1-328): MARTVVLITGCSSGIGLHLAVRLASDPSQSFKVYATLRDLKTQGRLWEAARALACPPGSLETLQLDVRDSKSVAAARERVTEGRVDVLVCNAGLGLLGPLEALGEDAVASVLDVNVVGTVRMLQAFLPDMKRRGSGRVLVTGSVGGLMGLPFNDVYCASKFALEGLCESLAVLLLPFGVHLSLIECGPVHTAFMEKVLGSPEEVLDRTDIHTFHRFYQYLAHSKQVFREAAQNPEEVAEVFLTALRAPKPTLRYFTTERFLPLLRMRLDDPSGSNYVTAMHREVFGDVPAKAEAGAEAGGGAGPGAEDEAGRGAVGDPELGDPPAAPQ
Method: (§3) For this experiment, non-cytotoxic concentrations of estrone derivative (10 μmol·l^−1) were used. E1 levels were determined by an immuno-enzymatic assay.

CEM-DNR-bulk = assay: MTT cytotoxicity assay, CEM-DNR-bulk; type: cell-based
From the text: as §1

K562 = assay: MTT cytotoxicity assay, K562; type: cell-based; conditions: Homo sapiens
From the text: as §1

A549 = assay: MTT cytotoxicity assay, A549; type: cell-based; conditions: Homo sapiens
From the text: as §1

CEM = assay: MTT cytotoxicity assay, CEM; type: cell-based; conditions: Homo sapiens, CCRF-CEM
From the text: as §1

human 17βHSD type 1 = biological target: T4, human 17βHSD type 1 (Homo sapiens, UniProt P14061); assay: Inhibition of recombinant 17βHSD type 1, tritium-labeled substrate conversion; type: biochemical; conditions: for inhibition at 0.1 µM: 0.1 μmol · l^−1 test substance; for inhibition at 0.1 µM / inhibition at 1 µM: read-out: % of inhibition of human 17βHSD1; for inhibition at 1 µM: 1 μmol · l^−1 test substance; for pIC50: read-out: 17βHSD1 IC50
T4 construct: made in house; expressing system suspended in buffer, not purified
T4 sequence (P14061 1-328): T3 sequence (P14061 1-328)
Method: as §2

HCT116p53 wt = assay: MTT cytotoxicity assay, HCT116p53 wt; type: cell-based; conditions: Homo sapiens
From the text: as §1

HCT116p53-/- = assay: MTT cytotoxicity assay, HCT116p53-/-; type: cell-based; conditions: Homo sapiens
From the text: as §1

U2OS = assay: MTT cytotoxicity assay, U2OS; type: cell-based; conditions: Homo sapiens
From the text: as §1

human 17βHSD1 [2] = biological target: T3, human 17βHSD1; assay: 17βHSD inhibition in CHO cells transfected with human 17βHSD1, E1 in supernatant; type: cell-based; parameters: expressed in transfected cells; conditions: 10 μmol·l^−1
Method: as §3

BJ = assay: MTT cytotoxicity assay, BJ fibroblasts; type: cell-based; conditions: Homo sapiens, non-tumor fibroblasts
From the text: as §1

K562-Tax = assay: MTT cytotoxicity assay, K562-Tax; type: cell-based; conditions: Homo sapiens
From the text: as §1

## 4-hydroxytamoxifen [Compound 4-OHT, reference compound]
U2OS cells
  pIC50: 4.92
luciferase
  pIC50: 4.99

## CC1(C)CCC2(CCC3C4CCc5cc(C(N)=O)ccc5C4CCC32C)OC1=O [EM1404, 3-carboxamido-1,3,5-(10)-estratrien-17(R)-spiro-2-(5,5-dimethyl-6-oxo)tetra-hydro-pyran]
17βHSD5; Qiu et al. 2007, WO9946279
  pKi: 8.16
17βHSD5; literature
  pIC50: 8.49

## Cc1ccc(CC[C@@H]2CC(=O)[C@@]3(C)CC[C@@H]4c5ccc(O)cc5CC[C@H]4[C@H]23)cc1 [Compound 15, 3-Hydroxy-15β-(4-methylphenethyl)-estra-1,3,5(10)-trien-17-one]
MRCS
  pIC50: 4.71
Human 17βHSD type 5
  % of inhibition of human 17βHSD5: 86%
Human 17βHSD1 [1]; 8 hr.
  E1 in supernatant, MCF-7: 719 pg/mL
Human 17βHSD1 [1]; 24 hr.
  E1 in supernatant, MCF-7: 948 pg/mL
CEM-DNR-bulk
  pIC50: 4.62
K562
  pIC50: 4.62
A549
  pIC50: 4.55
CEM
  pIC50: 4.66
Human 17βHSD type 1
  inhibition at 0.1 µM: 87%
  inhibition at 1 µM: 100%
  pIC50: 8.10
HCT116p53 wt
  pIC50: 4.55
HCT116p53-/-
  pIC50: 4.53
U2OS
  pIC50: 4.54
Human 17βHSD1 [2]; 8 hr.
  E1 in supernatant, CHO: 750 pg/mL
Human 17βHSD1 [2]; 24 hr.
  E1 in supernatant, CHO: 554 pg/mL
BJ
  pIC50: 4.55
other
  melting point: 159 °C
K562-Tax
  pIC50: 4.86

## C[C@]12CC[C@@H]3c4ccc(O)cc4CC[C@H]3[C@@H]1[C@H](CCc1ccc(F)cc1)CC2=O [Compound 5, 15β-(4-Fluorophenethyl)-3-hydroxy-estra-1,3,5(10)-trien-17-one]
MRCS
  pIC50: 4.74
Human 17βHSD type 5
  % of inhibition of human 17βHSD5: 70%
Human 17βHSD1 [1]; 8 hr.
  E1 in supernatant, MCF-7: 3373 pg/mL
Human 17βHSD1 [1]; 24 hr.
  E1 in supernatant, MCF-7: 2236 pg/mL
CEM-DNR-bulk
  pIC50: 4.55
K562
  pIC50: 4.60
A549
  pIC50: 4.45
CEM
  pIC50: 4.60
Human 17βHSD type 1
  inhibition at 0.1 µM: 72%
  inhibition at 1 µM: 92%
  pIC50: 7.26
HCT116p53 wt
  pIC50: 4.53
HCT116p53-/-
  pIC50: 4.52
U2OS
  pIC50: 4.52
Human 17βHSD1 [2]; 8 hr.
  E1 in supernatant, CHO: 3194 pg/mL
Human 17βHSD1 [2]; 24 hr.
  E1 in supernatant, CHO: 1576 pg/mL
BJ
  pIC50: 4.62
other
  melting point: 164 °C
K562-Tax
  pIC50: 4.71

Source: US10759826B2, “15β-substituted estrone derivatives as selective inhibitors of 17β-hydroxysteroid-dehydrogenases, method of preparation and use thereof” (USTAV ORGANICKE CHEMIE A BIOCHEMIE AV CR, V.V.I., priority 2016, dated 2020)
